# According to article PMC11876671, “Investigating blood–brain barrier penetration and neurotoxicity of natural products for central nervous system drug development” (Scientific Reports, 2025):
# Where a name gives a salt, the structure may show the parent alone. *1 amine or outer side, *2 acyl side, *3 side chain or, on linkers, in order; H or OH if unused. Where a SMILES comes first, the peptide text is derived from it. Bridges are numbered along the chain shown (N, C = ends). [ ]: non-standard residue; d: D form. The star is where a group is joined. X1 = NC1=N[C@@H]([C@H](N[*:1])C(=O)[*:2])C[C@H](O)N1; ΔAla(Z-3-ureido) = NC(=O)N/C=C(\N)C(=O)O; β3hOrn = NCCC[C@H](N)CC(=O)*; Dap = NC[C@H](N)C(=O)O
# Experiment: in vitro
# Conditions: PAMPA, PAMPA-BBB Pe
row,SMILES,Papp [×10⁻⁶ cm/s]
1,CCOC(=O)c1ccc(N)cc1 [BENZOCAINE],99

# Same assay, conditions: PAMPA, PAMPA-BBB Pe(10^-6 cm/sec)
row,SMILES,Papp [×10⁻⁶ cm/s]
1,CC1=C(/C=C/C(C)=C/C=C/C(C)=C\C(=O)O)C(C)(C)CCC1 [ISOTRETINOIN],8.7
2,CC[C@H](C)C(=O)O[C@H]1C[C@H](O)C=C2C=C[C@H](C)[C@H](CC[C@@H](O)C[C@@H](O)CC(=O)O)[C@H]21 [PRAVASTATIN SODIUM],< 1
3,Oc1cc(O)c2c(c1)O[C@H](c1ccc(O)c(O)c1)[C@H](O)C2 [L-EPICATECHIN],< 1

# Same assay, conditions: PAMPA, PAMPA-BBB Pe(10^-6 cm/sec), Table S3: compounds exhibiting low PAMPA-BBB permeability
row,SMILES,Papp [×10⁻⁶ cm/s]
1,COc1cc(C[C@@H](CO)[C@H](CO)Cc2ccc(O)c(OC)c2)ccc1O [SECOISOLARICIRESINOL],< 1
2,OC[C@H]1O[C@@H](Oc2cc(O)cc(/C=C/c3ccc(O)cc3)c2)[C@H](O)[C@@H](O)[C@@H]1O [POLYDATIN],< 1
3,"O=C(OC[C@H]1O[C@@H](OC(=O)c2cc(O)c(O)c(O)c2)[C@H](OC(=O)c2cc(O)c(O)c(O)c2)[C@@H](OC(=O)c2cc(O)c(O)c(O)c2)[C@@H]1O)c1cc(O)c(O)c(O)c1 [1,2,3,6-TETRA-O-GALLOYL-.BETA.-D-GLUCOSE]",< 1
4,COc1ccc2cc1Oc1ccc(cc1)C[C@H]1c3c(cc4c(c3Oc3cc5c(cc3OC)CCN(C)[C@@H]5C2)OCO4)CCN1C [CEPHARANTHINE],< 1
5,Cc1cc(O)c2c(=O)c3c(O)cc(O)c4c5c(O)cc(O)c6c(=O)c7c(O)cc(C)c8c1c2c(c34)c(c78)c65 [HYPERICIN],6.4
6,COc1ccc2[nH]c3c(c2c1)CCNC3 [Pinoline],2.5
7,CC=C1C[N+]2(C)CC[C@@]34C(=C(C=O)[C@H]1C[C@@H]32)Nc1ccccc14 (some centres unmarked) [METVINE],< 1
8,CC(=O)CCc1ccc(O)cc1 [RASPBERRY KETONE],4.1
9,C[C@]1(OC(=O)/C=C/c2ccccc2)C[C@@H](O)[C@]2(O)C=CO[C@@H](O[C@@H]3O[C@H](CO)[C@@H](O)[C@H](O)[C@H]3O)[C@@H]21 [HARPAGOSIDE],< 1
10,O=c1ccc2ccc(O)c(O)c2o1 [DAPHNETIN],3.8
11,O=C(/C=C/c1ccc(O)c(O)c1)c1ccc(O[C@@H]2O[C@H](CO)[C@@H](O)[C@H](O)[C@H]2O)c(O)c1O [MAREIN¦],1.6
12,O=c1cc(-c2ccc(O)c(O)c2)oc2cc(O)cc(O)c12 [LUTEOLIN],2.2
13,CNc1ccccc1C(=O)N1CCc2c([nH]c3ccccc23)C1=O [Rhetsinine],2.6
14,COC(=O)c1ccc(O)c2nc3c(C=O)c(O)cc(O)c3nc12 [LOMOFUNGIN],5.1
15,O=c1ccn([C@@H]2O[C@H](COP(=O)(O)OP(=O)(O)O)[C@@H](O)[C@H]2O)c(=O)[nH]1 [Uridine diphosphate disodium],< 1
16,"COC1=C(OC)C(=O)c2ccccc2C1=O [2,3-DIMETHOXYNAPHTHOQUINONE]",4.7
17,O=C1C=CC(=O)c2c(O)cccc21 [JUGLONE],4.1

row,SMILES,Papp [×10⁻⁶ cm/s]
1,OCC(O)Cc1ccc2c(c1)OCO2 (centres unmarked) [SAFROLGLYCOL],1.7
2,O=c1c(O)c(-c2cc(O)c(O)c(O)c2)oc2cc(O)ccc12 [ROBINETIN],1
3,NC1C=CC=C(C(=O)O)C1 (centres unmarked),< 1
4,Oc1cc(O)c2c(c1)O[C@H](c1cc(O)c(O)c(O)c1)[C@@H](O)C2 [GALLOCATECHIN],< 1
5,"CC(C)=CCC/C(C)=C/CC/C(C)=C/CO [FARNESOL TRANS,TRANS-FARNESOL]",< 1
6,C[C@@H]1O[C@@H](OC[C@H]2O[C@@H](Oc3c(-c4ccc(O)c(O)c4)oc4cc(O)cc(O)c4c3=O)[C@H](O)[C@@H](O)[C@@H]2O)[C@H](O)[C@H](O)[C@H]1O [RUTIN],< 1
7,COc1c(O)cc2c(c1O)[C@@H]1O[C@H](CO)[C@@H](O)[C@H](O)[C@H]1OC2=O [BERGENIN],< 1
8,C[C@@H]1CC[C@@]2(OC1)O[C@H]1C[C@H]3[C@@H]4CC[C@H]5C[C@@H](O)CC[C@]5(C)[C@H]4CC(=O)[C@]3(C)[C@H]1[C@@H]2C [HECOGENIN],< 1
9,O=C(O)/C=C/c1ccc(O)c(O)c1 [CAFFEIC ACID],< 1
10,O=C1O/C(=C\c2ccc(O)cc2)C(O)=C1c1ccc(O)cc1 [[…] B1],< 1
11,COc1c2c(cc3c1OCO3)CC[N+](C)=C2 [COTARNINIUM],< 1
12,c1cncc([C@@H]2CCCCN2)c1 [ANABASINE],3.4
13,NCCC[C@H](N)CC(=O)N[C@H]1CNC(=O)[C@H]([C@H]2C[C@H](O)NC(N)=N2)NC(=O)/C(=C/NC(N)=O)NC(=O)[C@H](CO)NC(=O)[C@H](CO)NC1=O [VIOMYCIN SULFATE] (β3hOrn-[Dap]SS[ΔAla(Z-3-ureido)][X1]; lactam 1-C),< 1
14,O=C(O)CCCc1c[nH]c2ccccc12 [IND[…]],< 1
15,NC(=O)c1ncn([C@@H]2O[C@H](CO)[C@@H](O)[C@H]2O)c1N [ACADESINE],< 1
16,O=C(O[C@@H]1Cc2c(O)cc(O)cc2O[C@@H]1c1cc(O)c(=O)c2c(O)c(O)cc([C@H]3Oc4cc(O)cc(O)c4C[C@H]3O)c2c1)c1cc(O)c(O)c(O)c1 [THEAFLAVIN MONOGALLATE],< 1
17,COc1cc2c(cc1O)C[C@@H]1NCCc3cc(OC)c(OC)c-2c31 [LAUROTETANINE],< 1

# Same assay, conditions: PAMPA, PAMPA-BBB Pe, Table S2: compounds exhibiting moderate to high PAMPA-BBB permeability
row,SMILES,Papp [×10⁻⁶ cm/s]
1,CN1CCCCC1c1ccc(-c2cccnc2)nc1 (centres unmarked) [ANABASAMINE],31
2,C=C[C@H]1C[N@@]2CC[C@H]1C[C@@H]2[C@@H](O)c1ccnc2ccccc12 [CINCHONINE],22
3,Cc1ccc(C(C)C)cc1O [CARVACROL],111
4,"COC(=O)c1c(C)cc(O)cc1O [Methyl 2,4-dihydroxy-6-methylbenzoate]",63
5,O=C1c2ccccc2-n2c1nc1ccccc1c2=O [[…]],141
6,CN1C[C@H](CO)C=C2c3cccc4[nH]cc(c34)C[C@H]21 [LYSERGOL],51
7,CCCCCCCCCCCCCC(=O)O[C@@H]1[C@@H](C)[C@@]2(O)[C@@H](C=C(CO)C[C@]3(O)C(=O)C(C)=C[C@@H]23)[C@@H]2C(C)(C)[C@]12OC(C)=O [PHORBOL MYRISTATE ACETATE],47
8,COC(=O)C1=CO[C@@H](C)[C@@H]2CN3CCc4c([nH]c5ccccc45)[C@@H]3C[C@H]12 [TETRAHYDROALSTONINE],> 530
9,COc1cc2c(cc1O)C[C@H]1c3c(cc(OC)c(O)c3-2)CCN1C [ISOBOLDINE],35
10,O=C(/C=C/c1ccccc1)NCCO [IDROCILAMIDE],211
11,Cc1ccnc(N)c1 [AMINOPICOLINE],13
12,C[C@]12CCC(=O)C=C1CC[C@@H]1[C@@H]2C(=O)C[C@]2(C)C(=O)CC[C@@H]12 [ADRENOSTERONE],41
13,OCc1c[nH]c2ccccc12 [INDOLE-3-CARBINOL],94
14,C[C@]12CCC(=O)C=C1[C@@H]1C[C@@H]1[C@H]1[C@@H]3[C@@H]4C[C@@H]4[C@@]4(CCC(=O)O4)[C@@]3(C)CC[C@@H]12 [DROSPIRENONE],169
15,C=C(C)[C@]12C[C@@H](C)[C@@]34O[C@](Cc5ccccc5)(O[C@@H]1[C@@H]3C=C(COC(=O)Cc1ccc(O)c(OC)c1)C[C@]1(O)C(=O)C(C)=C[C@@H]41)O2 [RESINIFERATOXIN],38
16,Oc1ccc(C2=Cc3ccc(O)cc3OC2)cc1 [IDRONOXIL],145
17,O=c1c2ccccc2oc2ccccc12 [XANTHONE],173
18,CCCCc1ccc(O)cc1 [4-BUTYLPHENOL],116
19,CC1=CCCC(C)(C)C12CCC(C)O2 (centres unmarked) [T[…]],141
20,CCCCC[C@H](O)CC(=O)CCc1ccc(O)c(OC)c1 [GINGEROL],69
21,O=C(/C=C/c1ccccc1)c1ccc(O)cc1O,223
